The values that follow come from publication PMC8266241, “Tetralone derivatives are MIF tautomerase inhibitors and attenuate macrophage activation and amplify the hypothermic response in endotoxemic mice” (Journal of Enzyme Inhibition and Medicinal Chemistry, 2021).

In one assay the test system is TNF-α in RAW264.7 cells. Nature of the assay: TNF-α production, ELISA. In kind it is cell-based, mouse. The following applies: 20 µM pre-treatment, 1 µg/ml LPS 24 h. As for the experimental part:
(§1) In cell culture experiments, we used RAW264.7 mouse monocyte/macrophage cell line (ECACC, Salisbury, UK; passage number: 8–15) and RAW-Blue™ cells (Invivogen, Toulouse France, passage number: 10–14). RAW264.7 and RAW-Blue™ cells were cultured in 5% CO2 at 37 °C in endotoxin-tested Dulbecco’s Modified Eagle’s Medium (high glucose, 4.5 g/L, 2 mM L-glutamine; Corning, Corning Incorporated Costar, Corning, NY) supplemented with 10% FBS. For culturing RAW-Blue™ cells, we also added 100 µg/ml normocin and 200 µg/ml zeocin to the medium. The day before the experiments, cells were plated onto 24- or 96-well plates and cultured overnight. […] The freshly synthesised tetralone derivatives were dissolved in DMSO and applied in 20 µM concentration as a pre-treatment, added 30 min before LPS induction. […]
(§2) For cytokine concentration measurements, RAW264.7 cells were cultured in 24-well plates at a density of 5*10^5 cells/well and treated with tetralones (pre-treatment, 20 µM) and with 1 µg/ml LPS for 24 h. TNF-α, IL-6 and CCL-2 levels were determined from the culturing media by using Ready-Set-Go ELISA kits (eBioscience, San Diego, CA, USA) for TNF-α and IL-6 detection and mouse CCL-2 uncoated ELISA-kit (Invitrogen, Vienna, Austria) for CCL-2 determination. ELISA-kits were applied as provided by the protocol of the manufacturer, the optical density was measured at 450 nm.

Assay [1] deals with T1, recombinant human MIF (Homo sapiens, UniProt P14174).
T1 construct: purchased ATGen Co. Ltd., Seoul, Republic of Korea
T1 sequence (P14174 2-115 limits assumed): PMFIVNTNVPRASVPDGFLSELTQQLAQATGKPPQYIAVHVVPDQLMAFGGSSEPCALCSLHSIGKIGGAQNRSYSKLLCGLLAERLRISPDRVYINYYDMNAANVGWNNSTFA
In words: Tautomerase assay: keto-enol tautomeric conversion of phenylpyruvate (enolase activity). The assay is classed as biochemical. The following applies: keto-enol conversion of phenylpyruvate; read-out: Inhibition of enolase (IC50).

Assay [2] has as its system RAW264.7 cells. Nature of the assay: ROS production in LPS-induced macrophages (DHR123). The assay is classed as cell-based, mouse. As to conditions: 20 µM pre-treatment, 1 µg/ml LPS 24 h, vs LPS-activated cells. As for the experimental part:
(§3) In cell culture experiments, we used RAW264.7 mouse monocyte/macrophage cell line (ECACC, Salisbury, UK; passage number: 8–15) and RAW-Blue™ cells (Invivogen, Toulouse France, passage number: 10–14). RAW264.7 and RAW-Blue™ cells were cultured in 5% CO2 at 37 °C in endotoxin-tested Dulbecco’s Modified Eagle’s Medium (high glucose, 4.5 g/L, 2 mM L-glutamine; Corning, Corning Incorporated Costar, Corning, NY) supplemented with 10% FBS. For culturing RAW-Blue™ cells, we also added 100 µg/ml normocin and 200 µg/ml zeocin to the medium. The day before the experiments, cells were plated onto 24- or 96-well plates and cultured overnight. […] The freshly synthesised tetralone derivatives were dissolved in DMSO and applied in 20 µM concentration as a pre-treatment, added 30 min before LPS induction. To exclude the effects of vehicle, both CTRL and LPS-treated cells received the same amount of DMSO.
To measure the amount of reactive oxygen species we seeded RAW264.7 cells onto 96-well plates in a density of 10^5cells/well. Cells were treated with the tetralones as a pre-treatment and they were induced with 1 µg/ml LPS for 24 h. Then 2 µM dihydrorhodamine123 (DHR123; Life Technologies, Carlsbad, CA) fluorescent dye was added and incubated for an additional 2 h. Fluorescent intensity of the dye (excitation 490 nm/emission 510–570 nm) was measured with Glomax Multi Detection System (Promega®, Madison, WI, USA).

The test system of another assay is IL-6 in RAW264.7 cells. In words: IL-6 production, ELISA. The assay is classed as cell-based, mouse. As to conditions: 20 µM pre-treatment, 1 µg/ml LPS 24 h. As for the experimental part: as §1, §2
For assay [3], the system named is RAW264.7 cells. Nature of the assay: Nitrite production in LPS-induced macrophages (Griess reagent). The assay is classed as cell-based, mouse. As to conditions: 20 µM pre-treatment, 1 µg/ml LPS 24 h, vs LPS-activated cells. As for the experimental part:
as §3
For nitrite measurements, we applied the same culturing conditions, treatments, and equipment as described above. After 24 h of incubation, 50 µl medium was removed and added to equal amount of Griess reagent (Sigma-Aldrich, St. Louis, MO, USA) in 96-well plate. The optical density was measured at 550 nm wavelength.

The target in assay [4] is T1, recombinant human MIF. In words: Tautomerase assay: enol-keto tautomeric conversion of phenylpyruvate (ketonase reaction). In kind it is biochemical. As to conditions: enol-keto conversion of phenylpyruvate, 100 µM substrate, pH 6.5; read-out: Inhibition of ketonase (IC50). As for the experimental part: The enol-keto tautomeric conversion of phenylpyruvate (ketonase reaction) was assessed at room temperature by monitoring the decrease in absorbance at 288 nm on a dual path Shimadzu 2100 UV spectrophotometer (Shimadzu, Kyoto, Japan) according to Taylor et al.[55] with minor modifications. Briefly, the 0.72 ml reaction mixture consisted of the enzyme at a final concentration of 0.4 µg/ml and the substrate in a 50 mM sodium phosphate buffer (pH = 6.5). The phenylpyruvate substrate was dissolved fresh in absolute ethanol to yield a final concentration of 100 µM. The reaction was monitored for 75 s at room temperature. A recombinant human MIF (from ATGen Co. Ltd., Seoul, Republic of Korea) was used as the enzyme source. Inhibitors were dissolved fresh in ethanol or DMSO. […] The compounds were diluted to achieve final concentrations of 200, 100, 50, 20, 5, 1, and 0.5 µM in the reaction mixture. All data presented have been derived from consonant measurements repeated at least three times. […] The areas under the curves obtained with and without the inhibitors were used to compare the conversion rates of the substrate.

For assay [5], the system named is NF-κB activation in RAW-Blue™ cells. Nature of the assay: NF-κB activation reporter assay (QUANTI-Blue). The assay is classed as cell-based, mouse. The following applies: 20 µM pre-treatment, 1 µg/ml LPS 24 h, vs LPS-activated cells. As for the experimental part:
as §3
The detection of NF-κB activation was accomplished by using RAW-Blue™ cells. RAW-Blue™ cells are genetically modified RAW264.7 macrophages, which are able to secrete embryonic alkaline phosphatase (EAP) upon LPS induction and following NF-κB activation. The levels of EAP can be examined using QUANTI-Blue™ detection medium.
RAW-Blue™ cells were seeded into 96-well plate at a density of 10^5cells/well. Cells were treated with tetralones (pre-treatment, 20 µM) and with 1 µg/ml LPS. 24 h after LPS treatment 20 µl medium was removed and incubated with 100 µl QUANTI-Blue™ detection medium (Invivogen; Toulouse, France) in 96-well plates. The optical density was measured at 600 nm.

For assay [6], the target named is T1, recombinant human MIF. The arrangement: method as in PMID 15778121. As to conditions: reference inhibitor; read-out: ketonase IC50 of reference inhibitor; cited from earlier work.
The target in assay [7] is T1, recombinant human MIF. The arrangement: method as in PMID 15778121. As to conditions: reference inhibitor; read-out: enolase IC50 of reference inhibitor; cited from earlier work.

Like-named read-outs stand apart in the source and are kept apart here.

Turning to `COc1ccccc1/C=C1\COc2ccccc2C1=O` [Compound 32], in the assay with TNF-α in RAW264.7 cells, the “effect on TNF-α production” value is listed as “reduced TNF-α production”. Besides, the IC50 on recombinant human MIF [1] amounted to 1260 ± 159 µM; at recombinant human MIF [4], 4.31 ± 1.34 µM. Also, in the assay on RAW264.7 cells [2], the “decrease in ROS concentrations” value is roughly 20%. For the same compound, the “effect on IL-6 production” value with IL-6 in RAW264.7 cells is on record as “had the most dominant effect”. In addition, in the assay on RAW264.7 cells [3], the lower nitrite concentrations is on record as roughly 50%. In addition, the “effect on NF-κB activation” value in [5] is given as “could not show any reducing effect”.
In the case of `O=C(O)/C=C/c1ccc(O)c(O)c1` [caffeic acid], the IC50 at recombinant human MIF [6] is 0.5 µM; at recombinant human MIF [7] it was 2 µM.
